The source of these data is patent publication US20070191336A1 (priority 2003, published 2007).

The target of the first experiment is T1, phospho p-38 alpha kinase (Homo sapiens, UniProt Q16539).
T1 construct: purchased Panvera
T1 sequence (Q16539 whole entry): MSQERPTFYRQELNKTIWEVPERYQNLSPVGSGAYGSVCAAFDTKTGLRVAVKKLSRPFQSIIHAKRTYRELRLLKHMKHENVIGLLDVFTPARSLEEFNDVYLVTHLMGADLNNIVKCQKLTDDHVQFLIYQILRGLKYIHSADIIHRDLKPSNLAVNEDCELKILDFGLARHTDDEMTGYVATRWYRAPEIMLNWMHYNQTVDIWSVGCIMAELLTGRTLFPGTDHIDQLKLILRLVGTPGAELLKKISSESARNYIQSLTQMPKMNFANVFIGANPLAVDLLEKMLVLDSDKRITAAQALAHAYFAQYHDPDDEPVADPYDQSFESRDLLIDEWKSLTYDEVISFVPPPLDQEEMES
In words: P-38 alpha kinase assay (spectrophotometric, pyruvate kinase/lactate dehydrogenase coupled). The class given is biochemical. As to conditions: Table 3; rates from […] to 2 h time frame. On the procedure: In this assay, the oxidation of NADH was continuously measured spectrophometrically. […] The reaction was initiated by adding ATP. The absorption at 340 nm was monitored continuously for up to 4 hours at 30° C. on Polarstar Optima plate reader (BMG). The kinase activity (reaction rate) was calculated from the slope at the time frame from 1.5 h to 2 h.
For inhibition determinations, test compounds were incubated with the reaction mixture for ˜5 min before adding ATP to start the reaction. […] IC50 values were calculated from a series of % inhibition values determined at a range of concentrations of each inhibitor using Prism to process the data and fit inhibition curves. Generally, the rates obtained at the time frame of 1.5 h to 2 h were used for these calculations.
By IC50 is commonly meant the concentration at which inhibition is half-maximal. A higher IC50 goes with weaker potency in that assay. `COc1cccc(NC(=O)Nc2cc(-c3ccccc3)nn2-c2cccc(OC)c2)c1` [Example 334, 1-(3-methoxyphenyl)-3-(1-(3-methoxyphenyl)-3-phenyl-1H-pyrazol-5-yl)urea] displayed an IC50 of 2200 nM. As to `COc1cccc(-n2nc(-c3ccccc3)cc2NC(=O)Nc2cccc(Cl)c2Cl)c1` [Example 335], the IC50 came out at 14 nM. On the same count and under the same terms, under `COc1cccc(-n2nc(C(F)(F)F)cc2NC(=O)Nc2cccc3ccccc23)c1` [Example 342, 1-(3-(trifluoromethyl)-1-(3-methoxyphenyl)-1H-pyrazol-5-yl)-3-(naphthalen-1-yl)urea] stands 1000 nM; under `COc1cccc(-n2nc(C(C)(C)C)cc2NC(=O)Nc2ccccc2F)c1` [Example 344, 1-[3-t-butyl-1-(3-methoxy-phenyl)-1H-pyrazol-5-yl]-3-(2-fluorophenyl)urea], 180 nM; under `COc1cccc(-n2nc(C(C)(C)C)cc2NC(=O)Nc2cccc(F)c2F)c1` [Example 345, 1-[3-t-butyl-1-(3-methoxy-phenyl)-1H-pyrazol-5-yl]-3-(2,3-difluorophenyl)urea], 270 nM. Still for that read-out and setting: the value for `CC(C)(C)c1cc(NC(=O)Nc2ccccc2F)n(-c2cccc(CC(N)=O)c2)n1` [Example 352, 1-{1-[3-(2-amino-2-oxoethyl)phenyl]-3-t-butyl-1H-pyrazol-5-yl}-3-(2-fluorophenyl)urea] was 43 nM; that for `CC(C)(C)c1cc(NC(=O)Nc2cccc(F)c2F)n(-c2cccc(C#N)c2)n1` [Example 355, 1-[3-t-butyl-1-(3-cyan-phenyl)-1H-pyrazol-5-yl]-3-(2,3-difluorophenyl)urea] was 42 nM. Still for that read-out and setting: under `CC(C)(C)c1cc(NC(=O)Nc2cccc(Br)c2)n(-c2cccc(C#N)c2)n1` [Example 356, 1-(3-t-butyl-1-(3-cyanophenyl)-1H-pyrazol-5-yl)-3-(3-bromophenyl)urea] stands 59 nM; under `CC(C)(C)c1cc(NC(=O)Nc2ccc3c(c2)OCO3)n(-c2cccc(C#N)c2)n1` [Example 357, 1-(benzo[d][1,3]dioxol-5-yl)-3-(3-t-butyl-1-(3-cyanophenyl)-1H-pyrazol-5-yl)urea], 130 nM.

For `CC(C)(C)c1cc(NC(=O)Nc2ccc(Cl)cc2)n(-c2cccc(C#N)c2)n1` [Example 358, 1-(3-t-butyl-1-(3-cyanophenyl)-1H-pyrazol-5-yl)-3-(4-chlorophenyl)urea], the IC50 was 100 nM.

With `CC(C)(C)c1cc(NC(=O)Nc2cccc(Cl)c2Cl)n(-c2cccc(C#N)c2)n1` [Example 359], the half-maximal inhibitory concentration (IC50) amounted to 13 nM.

For `COc1cccc(NC(=O)Nc2cc(C(C)(C)C)nn2-c2cccc(C#N)c2)c1` [Example 360], the IC50 turned out to be 390 nM. Same read-out and setting: the value for `CC(C)(C)c1cc(NC(=O)Nc2cccc(C(F)(F)F)c2)n(-c2cccc(C#N)c2)n1` [Example 361] was 870 nM; that for `CC(C)(C)c1cc(NC(=O)Nc2ccccc2F)n(-c2cccc(CCC(=O)O)c2)n1` [Example 363, 3-(3-{3-t-butyl-5-[3-(2-fluorophenyl)ureido]-11H-pyrazol-1-yl}-phenyl)propionic acid] was 190 nM. On the same count and under the same terms, the value for `CCOC(=O)CCc1cccc(-n2nc(C(C)(C)C)cc2NC(=O)Nc2cccc(Cl)c2Cl)c1` [Example 364, 3-(3-{3-t-butyl-5-[3-(2,3-dichlorophenyl)ureido]-1H-pyrazol-1-yl}phenyl)propionic acid ethyl ester] was 10 nM.

Compound `CC(C)(C)c1cc(NC(=O)Nc2cccc(Cl)c2Cl)n(-c2cccc(CCC(=O)O)c2)n1` [Example 365, 3-(3-{3-t-Butyl-5-[3-(2,3-dichloro-phenyl)ureido]-1H-pyrazol-1-yl}-phenyl)propionic acid] yielded a concentration for half-maximal inhibition (IC50) of 7 nM. `CN(C)CCc1cccc(-n2nc(C(C)(C)C)cc2NC(=O)Nc2ccc(Cl)cc2)c1` [Example 372, 1-{3-t-butyl-1-[3-(2-(dimethylamino)ethyl]phenyl}-1H-pyrazol-5-yl)-3-(4-chlorophenyl)urea] displayed an IC50 of 1460 nM. The same measure, in the same setting: the value for `CC(C)(C)c1cc(NC(=O)Nc2cccc(Cl)c2Cl)n(-c2cccc(CCN)c2)n1` [Example 374, 1-{1-[3-(2-aminoethyl)phenyl]-3-t-butyl-1H-pyrazol-5-yl}-3-(2,3-dichlorophenyl)urea] was 37 nM; that for `CC(C)(C)c1cc(NC(=O)Nc2cccc(Br)c2)n(-c2cccc(CCN)c2)n1` [Example 376, 1-{1-[3-(2-aminoethyl)phenyl]-3-t-butyl-1H-pyrazol-5-yl}-3-(3-bromophenyl)urea] was 480 nM; that for `CC(C)(C)c1cc(NC(=O)Nc2cccc(Cl)c2)n(-c2cccc(CCN)c2)n1` [Example 378, 1-{1-[3-(2-aminoethyl)phenyl]-3-t-butyl-1H-pyrazol-5-yl}-3-(3-chlorophenyl)urea] was 400 nM. Still for that read-out and setting: the value for `CC(C)(C)c1cc(NC(=O)Nc2cccc(C(F)(F)F)c2)n(-c2cccc(CCN)c2)n1` [Example 380, 1-{1-[3-(2-aminoethyl)phenyl]-3-t-butyl-1H-pyrazol-5-yl}-3-[3-(trifluoromethyl)phenyl]urea] was 2000 nM. The same measure, in the same setting: under `COc1cccc(NC(=O)Nc2cc(C(C)(C)C)nn2-c2cccc(CCN)c2)c1` [Example 382, 1-{1-[3-(2-aminoethyl)phenyl]-3-t-butyl-1H-pyrazol-5-yl}-3-(3-methoxyphenyl)urea] stands 880 nM; under `CN(C)CCc1cccc(-n2nc(C(C)(C)C)cc2NC(=O)Nc2cccc(Cl)c2Cl)c1` [Example 383, 1-(3-t-butyl-1-{3-[2-(dimethylamino)ethyl]phenyl}-1H-pyrazol-5-yl)-3-(2,3-di-chlorophenyl)urea], 100 nM. In the case of `CC(C)(C)c1cc(NC(=O)Nc2cccc(Cl)c2)n(-c2cccc(C#N)c2)n1` [Example 385, 1-(3-t-butyl-1-(3-cyanophenyl)-1H-pyrazol-5-yl)-3-(3-chlorophenyl)urea], the half-inhibitory concentration (IC50) is 30 nM. On the same count and under the same terms, under `CC(C)(C)c1cc(NC(=O)Nc2cccc(Cl)c2)n(-c2cccc(CN)c2)n1` [Example 386, 1-{1-[3-(aminomethyl)phenyl]-3-t-butyl-1H-pyrazol-5-yl}-3-(3-chloro-phenyl)urea] stands 114 nM.

The experiment is the same for the next values; noted with them: read-out: % Inhibition @ concentration, Table 3; at 0.1 uM.
As for `COc1ccc(-n2nc(C(C)(C)C)cc2NC(=O)Nc2ccccc2F)cc1` [Example 346, 1-[3-t-butyl-1-(4-methoxyphenyl)-1H-pyrazol-5-yl]-3-(2-fluorophenyl)urea], the inhibition at 0.1 µM worked out at 19%. Same read-out and setting: the value for `COc1ccc(-n2nc(C(C)(C)C)cc2NC(=O)Nc2cccc(C(F)(F)F)c2)cc1` [Example 347, 1-[3-t-butyl-1-(4-methoxyphenyl)-1H-pyrazol-5-yl]-3-(3-trifluoromethylphenyl)urea] was 8%. For the compound `COc1ccc(-n2nc(C(C)(C)C)cc2NC(=O)Nc2cccc(OC)c2)cc1` [Example 348, 1-[3-t-butyl-1-(4-methoxyphenyl)-1H-pyrazol-5-yl]-3-(3-methoxy-phenyl)urea], the inhibition at 0.1 µM turned out to be 17%. Turning to `COc1ccc(-n2nc(C(C)(C)C)cc2NC(=O)Nc2cccc(Cl)c2)cc1` [Example 350, 1-[3-t-butyl-1-(4-methoxyphenyl)-1H-pyrazol-5-yl]-3-(3-chlorophenyl)urea], the inhibition at 0.1 µM was 39%.

The experiment is the same for the next values; noted with them: read-out: % Inhibition @ concentration, Table 3; at 1 uM.
Regarding `COc1ccc(-n2nc(C(C)(C)C)cc2NC(=O)Nc2ccccc2F)cc1` [Example 346, 1-[3-t-butyl-1-(4-methoxyphenyl)-1H-pyrazol-5-yl]-3-(2-fluorophenyl)urea], the inhibition at 1 µM came to 63%. The same measure, in the same setting: the value for `COc1ccc(-n2nc(C(C)(C)C)cc2NC(=O)Nc2cccc(C(F)(F)F)c2)cc1` [Example 347, 1-[3-t-butyl-1-(4-methoxyphenyl)-1H-pyrazol-5-yl]-3-(3-trifluoromethylphenyl)urea] was 31%; that for `COc1ccc(-n2nc(C(C)(C)C)cc2NC(=O)Nc2cccc(OC)c2)cc1` [Example 348, 1-[3-t-butyl-1-(4-methoxyphenyl)-1H-pyrazol-5-yl]-3-(3-methoxy-phenyl)urea] was 47%; that for `COc1ccc(-n2nc(C(C)(C)C)cc2NC(=O)Nc2cccc(Cl)c2)cc1` [Example 350, 1-[3-t-butyl-1-(4-methoxyphenyl)-1H-pyrazol-5-yl]-3-(3-chlorophenyl)urea] was 64%.

As to `CC(C)(C)c1cc(NC(=O)Nc2cccc(Br)c2)n(-c2cccc(CN)c2)n1` [Example 384, 1-{1-[3-(aminomethyl)phenyl]-3-t-butyl-1H-pyrazol-5-yl}-3-(3-bromophenyl)urea], the inhibition at 1 µM was determined as 72%.

The experiment is the same for the next values; noted with them: read-out: % Inhibition @ concentration, Table 3; at 2 uM.
For `COc1cccc(-n2nc(C)cc2NC(=O)Nc2cccc(C(F)(F)F)c2)c1` [Example 338, 1-(1-(3-methoxyphenyl)-3-methyl-1H-pyrazol-5-yl)-3-(3-(trifluoromethyl)phenyl)urea], the inhibition at 2 µM amounted to 7%.

With `COc1cccc(NC(=O)Nc2cc(C)nn2-c2cccc(OC)c2)c1` [Example 339, 1-(3-methoxyphenyl)-3-(1-(3-methoxyphenyl)-3-methyl-1H-pyrazol-5-yl)urea], the inhibition at 2 µM was 9%.

The experiment is the same for the next values; noted with them: read-out: % Inhibition @ concentration, Table 3; at 10 uM.
Regarding `COc1cccc(-n2nc(C)cc2NC(=O)Nc2cccc(Cl)c2)c1` [Example 336, 1-(3-chlorophenyl)-3-(1-(3-methoxyphenyl)-3-methyl-1H-pyrazol-5-yl)urea], the inhibition at 10 µM is 27%.

With `COc1cccc(-n2nc(C)cc2NC(=O)Nc2cccc(Br)c2)c1` [Example 337, 1-(3-bromophenyl)-3-(1-(3-methoxyphenyl)-3-methyl-1H-pyrazol-5-yl)urea], the inhibition at 10 µM was determined as 8%. On the same count and under the same terms, under `COc1cccc(-n2nc(C)cc2NC(=O)Nc2cccc(Cl)c2Cl)c1` [Example 340, 1-(2,3-dichlorophenyl)-3-(1-(3-methoxyphenyl)-3-methyl-1H-pyrazol-5-yl)urea] stands 31%; under `CCOC(=O)CCc1cccc(-n2nc(C(C)(C)C)cc2NC(=O)Nc2cccc3cccnc23)c1` [Example 366, 3-(3-{3-t-butyl-5-[3-(quinolin-8-yl)ureido]-1H-pyrazol-1-yl}phenyl)-propionic acid ethyl ester], 53%. Still for that read-out and setting: under `CC(C)(C)c1cc(NC(=O)Nc2cccc3cccnc23)n(-c2cccc(CCC(=O)O)c2)n1` [Example 367, 3-(3-{3-t-butyl-5-[3-(quinolin-8-yl)ureido]-1H-pyrazol-1-yl}phenyl)-propionic acid] stands 85%; under `CC(C)(C)c1cc(NC(=O)Nc2cccc(Br)c2)n(-c2cccc(CN)c2)n1` [Example 384, 1-{1-[3-(aminomethyl)phenyl]-3-t-butyl-1H-pyrazol-5-yl}-3-(3-bromophenyl)urea], 96%.
